Data: patent US20160022620A1, “ENCAPSULATED COMPOSITION FOR BINDING ALDEHYDES IN THE STOMACH” (BIOHIT OYJ, priority 2013, published 2016)

Experiment: Dissolution test for the capsules (USP I method, pH 1.2 HCl buffer)
Format: physicochemical
Settings: not granulated; in 5 minutes
Method: Dissolution tests were carried out on the capsules of Example 1 according to the USP I method (USP 24) (The United States Pharmacopeia 2001). A standard curve was prepared between 0.01 and 0.6 mg/ml ([…], r^2=0.9999). The medium used was 500 ml of pH 1.2 HCl buffer. The rotation rate of the baskets was 100 rpm, and the temperature of the medium was +37° C. (±0.5). Samples were taken at 5-minute intervals for the first half hour and thereafter at 10-minute intervals for the remaining 2 hours. L-cysteine was detected in flow-through cells (10 mm) at a wavelength of 213 nm. The results were calculated by using dissolution software. The system was equipped with a bath and a pump (Sotax AT7 UV Dissolution System, Stax, Allschwil, Switzerland) and a spectrophotometer (PerkinElmer, Lambda 25, PerkinElmer, Inc., Waltham, Mass.), the software used for the test and for calculating the results was WinSotax (Sotax). […] When not granulated, the L-cysteine was dissolved rapidly (100% in 5 minutes).

Q: Which L-cysteine dissolved does the source give for `N[C@@H](CS)C(=O)O` [L-cysteine] here?
A: The L-cysteine dissolved was 100%.
